Measurements published in the SangsterLogP compilation.

Experiment: method code G-GLC, from DOI: 10.1021/es00162a015, PMID: 19995068
Compound `Brc1c(Br)c(Br)c(-c2c(Br)c(Br)c(Br)c(Br)c2Br)c(Br)c1Br` has a logP of 8.58.
Compound `Brc1ccc(-c2ccccc2)cc1` has a logP of 4.96.
`Brc1ccc(Br)c(-c2cc(Br)c(Br)cc2Br)c1` gave a logP of 7.1.
In the case of `Cc1ccc(-c2ccccc2)cc1`, the logP is reported as 4.63.
`Clc1ccc2oc3ccc(Cl)cc3c2c1` gave a logP of 5.44.
Work on `Brc1ccccc1-c1ccccc1` yielded a logP of 4.59.
`Clc1ccc2c(c1)Oc1ccccc1O2` showed a logP of 4.94.
Compound `Brc1ccc(-c2ccc(Br)cc2)cc1` has a logP of 5.72.
For `Cc1ccc(-c2ccc(C)cc2)cc1`, the logP was 5.09.
With `Brc1cccc(-c2ccccc2)c1` the logP was 4.85.
Work on `Clc1c(Cl)c(Cl)c2c(c1Cl)Oc1ccccc1O2` yielded a logP of 6.2.
